Measured values published in patent publication US5955493A, “Thiamorphinans with neuroprotective activity” (priority 1995, dated 1999).

Columns and labels:
NMDA-induced convulsion = assay: Inhibition of NMDA-induced convulsion (i.c.v. coinjection); format: in vivo, Male Swiss Webster mice
Description: Male Swiss Webster mice [(SW) fBR] 20-25 g (Canadian Breading Farms St. Constant, Quebec), were coinjected intracerebroventricullarly (i.c.v.) with various doses of test compound and NMDA (1 and 2 nmol; Sigma Chemical Co., St. Louis, Mo.) in total volume of 10 μl. […] The convulsive response to NMDA was within 5 minutes of injection, characterized by wild running, popcorn jumping and myoclonic seizures (i.e. repetitive movements involving all limbs simultaneously, usually accompanied by loss of righting reflex). A minimum of 15 animals were used in each treatment group. The number of mice convulsing in each group was recorded. The dose producing convulsions in 50% of the mice (CD50) was calculated by the method of Litchfield and Wilcoxon ("Manual and Pharmacological Calculations with Computer Programs", 2nd ed., Springer, N.Y., 1987).

Mice [1] = assay: Rotarod test (motor effects); format: in vivo; settings: i.c.v.; for Max. % mice showing motor effect: rotarod 8 revolutions per min, *P ≤ 0.05 as compared with control
From the text: The rotarod treadmill for mice (model 7600, UGO Basile, Italy) was used to assess the motor effects of the test compounds. The method used was similar to the procedure described by Dunham and Miya (J. Am. Pharmac. Assoc., 1957, 46:208). The apparatus consisted of a rod with a diameter of 2.5 cm which was suspended horizontally 50 cm above a plain working area. The rod was turned at a speed of 8 revolutions per min. Circular perspex separators were placed at intervals along the rod so that five animals could be tested at the same time. Before administering any compound, all tested mice were placed on the turning rod for 1 min on two consecutive days. Mice that fell from the rod during this test were excluded. The test compounds were administered i.c.v. and the % of mice showing motor effects was monitored.

Mice [2] = assay: Locomotion and falling behavior; format: in vivo; settings: i.c.v.; for % mice showing significant effect (falling): at min. dose for falling; for % mice showing significant effect (locomotion): at min. dose for locomotion; for min. dose for falling / min. dose for locomotion: observed 15 to 30 min after injection
Description: Mice were placed individually in observation cages for a 60 minute habituation period, injected i.c.v. with the different compounds and observed from 15 to 30 min. after injection. Locomotion and falling behavior were assessed according to the procedure of Koek and Colpaert (J. Pharm. Exp. Ther., 1990, 252:349). For each mouse the presence of locomotion (locomotion with all four legs moving for at least 15 seconds) and falling behavior (falling from rearing or standing position backward or to the side) was recorded. Statistical significance of drug-induced changes in the occurrence of a particular behavior was tested by the method of Fray et al […].

AMPA-induced convulsions = assay: Inhibition of AMPA-induced convulsions; format: in vivo, Male Swiss Webster mice; settings: i.c.v.
Description: Male Swiss Webster mice [(SW) fBR]20-25 g, were coinjected intracerebroventricullarly (i.c.v.) with various doses of test compounds, α- and β-sulfallorphan, […]; Research Biochemical Inc.) kainic acid (0.25-0.75 nmol; Sigma Chemical Co.) and biculline (1-10 nmol; Research Biochemical Inc.) in total volume of 10 μl. […] The convulsive response to the AMPA, kainic acid and biculline was within 5 minutes of injection, characterized by wild running, popcorn jumping and myoclonic seizures (i.e. repetitive movements involving all limbs simultaneously, usually accompanied by loss of righting reflex). A minimum of 15 animals were used in each treatment group. The number of mice convulsing in each group was recorded. The dose producing convulsions in 50% of the mice (CD50) was calculated by the method of Litchfield and Wilcoxon. LD50, the dose producing mortality in 50% of the mice, was determined by Fisher's exect test. The results for both α- and β-sulfallorphan are summarized below in tables II and III.

[3] = test system: Kainic acid-induced convulsions; assay: Inhibition of kainic acid-induced convulsions; format: in vivo, Male Swiss Webster mice; settings: i.c.v.
Description: (§1) Male Swiss Webster mice [(SW) fBR]20-25 g, were coinjected intracerebroventricullarly (i.c.v.) with various doses of test compounds, α- and β-sulfallorphan, with AMPA (0.25-2.0) nmol; Research Biochemical Inc.) kainic acid (0.25-0.75 nmol; Sigma Chemical Co.) and biculline (1-10 nmol; Research Biochemical Inc.) in total volume of 10 μl. […] The convulsive response to the AMPA, kainic acid and biculline was within 5 minutes of injection, characterized by wild running, popcorn jumping and myoclonic seizures (i.e. repetitive movements involving all limbs simultaneously, usually accompanied by loss of righting reflex). A minimum of 15 animals were used in each treatment group. The number of mice convulsing in each group was recorded. The dose producing convulsions in 50% of the mice (CD50) was calculated by the method of Litchfield and Wilcoxon. LD50, the dose producing mortality in 50% of the mice, was determined by Fisher's exect test. The results for both α- and β-sulfallorphan are summarized below in tables II and III.

[4] = test system: Bicuculline-induced convulsions; assay: Inhibition of bicuculline-induced convulsions; format: in vivo, Male Swiss Webster mice; settings: i.c.v.
Description: as §1

Compound	CD50 (NMDA-induced convulsion; 1 nmol NMDA)	Max. % mice showing motor effect (Mice [1])	CD50 (NMDA-induced convulsion; 2 nmol NMDA)	also measured
C=CC[S+]1CC[C@]23CCCC[C@H]2[C@H]1Cc1ccc(O)cc13 (relative stereo) [compound 12, 3-hydroxy-17-deaza-17-allylthionium-17-thiamorphinan]	0.07 nmol/mouse			
CC(C)=CC[S+]1CC[C@]23CCCC[C@H]2[C@H]1Cc1ccc(O)cc13 (relative stereo) [compound 13, 3-hydroxy-17-deaza-17-dimethylallylthionium-17-thiamorphinan]	0.19 nmol/mouse	0%		
Oc1ccc2c(c1)[C@@]13CCCC[C@H]1[C@@H](C2)[S+](CCc1ccccc1)CC3 (relative stereo) [compound 14, 3-hydroxy-17-deaza-17-phenethylthionium-17-thiamorphinan]	0.99 nmol/mouse	20%		
C[S+]1CC[C@]23CCCC[C@H]2[C@H]1Cc1ccc(O)cc13 (relative stereo) [compound 17, 3-hydroxy-17-deaza-17-methylthionium-17-thiamorphinan]	0.02 nmol/mouse	60%		
C[C@]12N[C@H](Cc3ccccc31)c1ccccc12 [MK-801]				% mice showing significant effect (falling) (Mice [2]): 50%; % mice showing significant effect (locomotion) (Mice [2]): 30%; min. dose for falling (Mice [2]): 1.50 nmol/mouse; min. dose for locomotion (Mice [2]): 0.25 nmol/mouse
C=CCN1CC[C@@]23CCCC[C@@H]2[C@@H]1Cc1ccc(O)cc13 [dextrallorphan]	2.68 nmol/mouse		43.2 nmol/mouse	
COc1ccc2c(c1)[C@]13CCCC[C@@H]1[C@H](C2)N(C)CC3 [dextromethorphan]				% mice showing significant effect (falling) (Mice [2]): 27%; % mice showing significant effect (locomotion) (Mice [2]): 30%; min. dose for falling (Mice [2]): 0.20 nmol/mouse; min. dose for locomotion (Mice [2]): 0.10 nmol/mouse
CN1CC[C@@]23CCCC[C@@H]2[C@@H]1Cc1ccc(O)cc13 [dextrorphan, reference compound]	0.55 nmol/mouse	60%	> 100 nmol/mouse	motor effect (statement) (Mice [1]; α-sulfallorphan 30 nmol/mouse, dextrorphan 60 nmol/mouse): induces a significant rise in motor effect
C=CCN1CC[C@]23CCCC[C@H]2[C@H]1Cc1ccc(O)cc13 [levallorphan]	1.06 nmol/mouse		> 20 nmol/mouse	
CN1CC[C@]23CCCC[C@H]2[C@H]1Cc1ccc(O)cc13 [levorphanol]	0.21 nmol/mouse		> 200 nmol/mouse	
C=CC[S+]1CC[C@]23CCCC[C@H]2[C@H]1Cc1ccc(O)cc13 (stereo partly drawn) [β-sulfallorphan 16, 3-hydroxy-17-deaza-17-allylthionium-17-thiamorphinan]	0.015 nmol/mouse	20%	0.28 nmol/mouse	% mice showing significant effect (locomotion) (Mice [2]): 20%; locomotion and falling behavior (statement) (Mice [2]): less locomotion than dextromethorphan and required greater amount to exhibit a significant effect; min. dose for falling (Mice [2]): no effect; min. dose for locomotion (Mice [2]): 1.25 nmol/mouse; CD50 (AMPA-induced convulsions; CD50 of AMPA (0.25-5 nmol/mouse) with 0.4 nmol/mouse β-sulfallorphan): 0.29 nmol/mouse; LD50 (AMPA-induced convulsions; LD50 of AMPA (0.25-5 nmol/mouse) with 0.4 nmol/mouse β-sulfallorphan, none = no mortality observed at dose tested): none; CD50 ([3]; CD50 of kainic acid (0.25-0.72 nmol/mouse) with 0.4 nmol/mouse β-sulfallorphan): 0.39 nmol/mouse; LD50 ([3]; LD50 of kainic acid (0.25-0.72 nmol/mouse) with 0.4 nmol/mouse β-sulfallorphan, none = no mortality observed at dose tested): none; CD50 ([4]; CD50 of bicuculline (1-10 nmol/mouse) with 0.4 nmol/mouse β-sulfallorphan): 3.12 nmol/mouse; LD50 ([4]; LD50 of bicuculline (1-10 nmol/mouse) with 0.4 nmol/mouse β-sulfallorphan, none = no mortality observed at dose tested): none
